Source: article PMC5218480 (PLoS ONE, 2017)

Tested on: MV-4-11 cells
Assay: Gene expression microarray analysis (Affymetrix PrimeView) and GSEA
Type: cell-based, human
Parameters: RFU PODN (11730768_x_at) / Fold change /veh PODN (11730768_x_at) / RFU LINC00158 (11744669_a_at) / Fold change /veh LINC00158 (11744669_a_at) / RFU DUSP10 (11751237_a_at) / Fold change /veh DUSP10 (11751237_a_at) / RFU ID3 (11757404_x_at) / Fold change /veh ID3 (11757404_x_at) / RFU PLEKHG5 (11737974_s_at) / Fold change /veh PLEKHG5 (11737974_s_at) / RFU LRRC4B (11730491_at) / Fold change /veh LRRC4B (11730491_at) / RFU GIMAP4 (11747438_a_at) / Fold change /veh GIMAP4 (11747438_a_at) / RFU KRT8 (11758183_x_at) / Fold change /veh KRT8 (11758183_x_at) / RFU CNN1 (11734310_a_at) / Fold change /veh CNN1 (11734310_a_at) / RFU VPS37D (11726825_at) / Fold change /veh VPS37D (11726825_at) / RFU C10orf10 (11716522_x_at) / Fold change /veh C10orf10 (11716522_x_at) / RFU KIR2DL2 /// KIR2DL4 /// KIR2DL5A /// KIR2DL5B /// KIR2DS1 /// KIR2DS2 /// KIR2DS3 /// KIR2DS4 /// KIR3DL3 /// KIR3DL3 /// KIR3DS1 (11738374_at) / Fold change /veh KIR2DL2 /// KIR2DL4 /// KIR2DL5A /// KIR2DL5B /// KIR2DS1 /// KIR2DS2 /// KIR2DS3 /// KIR2DS4 /// KIR3DL3 /// KIR3DL3 /// KIR3DS1 (11738374_at) / RFU C1QL1 (11718748_at) / Fold change /veh C1QL1 (11718748_at) / RFU TMPRSS4 (11747572_a_at) / Fold change /veh TMPRSS4 (11747572_a_at) / RFU HAMP (11756126_x_at) / Fold change /veh HAMP (11756126_x_at) / RFU RNFT2 (11725882_a_at) / Fold change /veh RNFT2 (11725882_a_at) / RFU NR4A2 (11747474_a_at) / Fold change /veh NR4A2 (11747474_a_at) / RFU ABCC12 (11746883_a_at) / Fold change /veh ABCC12 (11746883_a_at) / RFU TMEM136 (11760407_x_at) / Fold change /veh TMEM136 (11760407_x_at) / RFU CLDN22 /// WWC2 (11732394_at) / Fold change /veh CLDN22 /// WWC2 (11732394_at) / RFU HLA-DPB1 (11760878_x_at) / Fold change /veh HLA-DPB1 (11760878_x_at) / RFU SPINT1 (11716480_a_at) / Fold change /veh SPINT1 (11716480_a_at) / RFU GAP43 (11754022_s_at) / Fold change /veh GAP43 (11754022_s_at) / RFU A4GNT (11735810_at) / Fold change /veh A4GNT (11735810_at) / RFU PRB3 (11715151_x_at) / Fold change /veh PRB3 (11715151_x_at) / RFU TUBB4B (11761932_at) / Fold change /veh TUBB4B (11761932_at) / RFU CAPN14 (11732068_a_at) / Fold change /veh CAPN14 (11732068_a_at) / RFU TMCC2 (11721928_a_at) / Fold change /veh TMCC2 (11721928_a_at) / RFU IRGQ (11745062_a_at) / Fold change /veh IRGQ (11745062_a_at) / RFU FAM174B (11720279_a_at) / Fold change /veh FAM174B (11720279_a_at) / RFU TMPRSS4 (11748680_a_at) / Fold change /veh TMPRSS4 (11748680_a_at) / RFU FAM212B (11763350_a_at) / Fold change /veh FAM212B (11763350_a_at) / RFU PLEKHG5 (11743358_a_at) / Fold change /veh PLEKHG5 (11743358_a_at) / RFU ZSCAN30 (11745921_a_at) / Fold change /veh ZSCAN30 (11745921_a_at) / RFU CMKLR1 (11741424_a_at) / Fold change /veh CMKLR1 (11741424_a_at) / RFU LOC101060620 /// MAPK8IP1 (11723275_at) / Fold change /veh LOC101060620 /// MAPK8IP1 (11723275_at) / RFU SPTSSB (11747773_x_at) / Fold change /veh SPTSSB (11747773_x_at) / RFU PRSS12 (11739890_at) / Fold change /veh PRSS12 (11739890_at) / RFU BIN1 (11741810_x_at) / Fold change /veh BIN1 (11741810_x_at) / RFU WNT11 (11732464_a_at) / Fold change /veh WNT11 (11732464_a_at) / RFU C10orf10 (11716521_a_at) / Fold change /veh C10orf10 (11716521_a_at) / RFU C5orf56 (11738089_at) / Fold change /veh C5orf56 (11738089_at) / RFU CYB561 (11721691_x_at) / Fold change /veh CYB561 (11721691_x_at) / RFU ANKRD19P (11752326_a_at) / Fold change /veh ANKRD19P (11752326_a_at) / RFU OR2T12 /// OR2T33 /// OR2T8 (11738714_s_at) / Fold change /veh OR2T12 /// OR2T33 /// OR2T8 (11738714_s_at) / RFU VCAN (11748164_a_at) / Fold change /veh VCAN (11748164_a_at) / RFU JSRP1 (11732532_at) / Fold change /veh JSRP1 (11732532_at) / RFU KRTAP10-11 (11738290_x_at) / Fold change /veh KRTAP10-11 (11738290_x_at) / RFU MYO3A (11730013_a_at) / Fold change /veh MYO3A (11730013_a_at) / RFU EBF3 (11725865_a_at) / Fold change /veh EBF3 (11725865_a_at) / RFU CAMK2N1 (11719241_x_at) / Fold change /veh CAMK2N1 (11719241_x_at) / RFU C5orf56 (11738088_a_at) / Fold change /veh C5orf56 (11738088_a_at) / RFU OLFML3 (11715873_a_at) / Fold change /veh OLFML3 (11715873_a_at) / RFU LOC100653217 /// NTM (11731650_a_at) / Fold change /veh LOC100653217 /// NTM (11731650_a_at) / RFU MAPK11 (11762145_a_at) / Fold change /veh MAPK11 (11762145_a_at) / RFU FIZ1 (11724087_x_at) / Fold change /veh FIZ1 (11724087_x_at) / RFU OASL (11726364_x_at) / Fold change /veh OASL (11726364_x_at) / RFU SOX15 (11748057_x_at) / Fold change /veh SOX15 (11748057_x_at) / RFU CD79A (11719716_a_at) / Fold change /veh CD79A (11719716_a_at) / RFU HIST1H1D (11736915_at) / Fold change /veh HIST1H1D (11736915_at) / RFU CASKIN2 (11723855_a_at) / Fold change /veh CASKIN2 (11723855_a_at) / RFU LOC730098 (11760151_x_at) / Fold change /veh LOC730098 (11760151_x_at) / RFU OR4N2 (11742367_at) / Fold change /veh OR4N2 (11742367_at) / RFU PRRT2 (11749266_a_at) / Fold change /veh PRRT2 (11749266_a_at) / RFU SNX32 (11753110_a_at) / Fold change /veh SNX32 (11753110_a_at) / RFU CDHR5 (11726645_a_at) / Fold change /veh CDHR5 (11726645_a_at) / RFU RCAN1 (11760418_a_at) / Fold change /veh RCAN1 (11760418_a_at) / RFU FAM167A (11723789_a_at) / Fold change /veh FAM167A (11723789_a_at) / RFU FAM26E (11764081_at) / Fold change /veh FAM26E (11764081_at) / RFU ISYNA1 (11749810_s_at) / Fold change /veh ISYNA1 (11749810_s_at) / RFU ACY1 (11761880_at) / Fold change /veh ACY1 (11761880_at) / RFU 11764098_at / Fold change /veh 11764098_at / RFU SAMD14 (11745864_x_at) / Fold change /veh SAMD14 (11745864_x_at) / RFU NPB (11741838_a_at) / Fold change /veh NPB (11741838_a_at) / RFU TMPRSS6 (11731388_a_at) / Fold change /veh TMPRSS6 (11731388_a_at) / RFU KRTAP10-2 (11738614_at) / Fold change /veh KRTAP10-2 (11738614_at) / RFU ARHGAP8 /// PRR5-ARHGAP8 (11727945_x_at) / Fold change /veh ARHGAP8 /// PRR5-ARHGAP8 (11727945_x_at) / RFU KRTAP5-7 /// NADSYN1 (11734609_at) / Fold change /veh KRTAP5-7 /// NADSYN1 (11734609_at) / RFU RASL12 (11751679_a_at) / Fold change /veh RASL12 (11751679_a_at) / RFU CDKN2B (11736163_a_at) / Fold change /veh CDKN2B (11736163_a_at) / RFU PRF1 (11729649_at) / Fold change /veh PRF1 (11729649_at) / RFU, ZNF638 /// ZNF638-IT1 / Fold change vs veh, ZNF638 /// ZNF638-IT1 / RFU, PANK3 / Fold change vs veh, PANK3 / RFU, SH3YL1 / Fold change vs veh, SH3YL1 / RFU, ZEB2 / Fold change vs veh, ZEB2 / RFU, NRIP1 / Fold change vs veh, NRIP1 / RFU, PTTG1IP / Fold change vs veh, PTTG1IP / RFU, CAPN2 / Fold change vs veh, CAPN2 / RFU, MED14 / Fold change vs veh, MED14 / RFU, SNORA58 / Fold change vs veh, SNORA58 / RFU, C1orf63 / Fold change vs veh, C1orf63 / RFU, LRRFIP1 / Fold change vs veh, LRRFIP1 / RFU, NDUFAF7 / Fold change vs veh, NDUFAF7 / RFU, SLC12A2 / Fold change vs veh, SLC12A2 / RFU, IBTK / Fold change vs veh, IBTK / RFU, ESF1 / Fold change vs veh, ESF1 / Fold change vs veh, TMEM50B / RFU, TAOK1 / Fold change vs veh, TAOK1 / RFU, ACBD3 / Fold change vs veh, ACBD3 / RFU, TMA16 / Fold change vs veh, TMA16 / RFU, RWDD3 / Fold change vs veh, RWDD3 / RFU, BCAT1 / Fold change vs veh, BCAT1 / RFU, EDEM3 / Fold change vs veh, EDEM3 / RFU, TMEM33 / Fold change vs veh, TMEM33 / RFU, WDR75 / Fold change vs veh, WDR75 / RFU, AHCTF1 / Fold change vs veh, AHCTF1 / RFU, TFRC / Fold change vs veh, TFRC / RFU, ZDHHC17 / Fold change vs veh, ZDHHC17 / RFU, NOM1 / Fold change vs veh, NOM1 / RFU, ARL8B / Fold change vs veh, ARL8B / RFU, ZBTB11 / Fold change vs veh, ZBTB11 / RFU, TAMM41 / Fold change vs veh, TAMM41 / RFU, KIAA1704 /// LOC100996395 / Fold change vs veh, KIAA1704 /// LOC100996395 / RFU, ING1 / Fold change vs veh, ING1 / RFU, TRMT61B / Fold change vs veh, TRMT61B / RFU, FUBP3 / Fold change vs veh, FUBP3 / RFU, TP53 / Fold change vs veh, TP53 / RFU, TNKS2 / Fold change vs veh, TNKS2 / RFU, ZFP14 / Fold change vs veh, ZFP14 / RFU, ACTR2 / Fold change vs veh, ACTR2 / RFU, PPP3R1 / Fold change vs veh, PPP3R1 / RFU, PIK3R1 / Fold change vs veh, PIK3R1 / RFU, HNRNPA1 / Fold change vs veh, HNRNPA1 / RFU, RNF170 / Fold change vs veh, RNF170 / RFU, ZNF28 / Fold change vs veh, ZNF28 / RFU, RNGTT / Fold change vs veh, RNGTT / RFU, OGT / Fold change vs veh, OGT / RFU, BRD1 / Fold change vs veh, BRD1 / RFU, MARS / Fold change vs veh, MARS / RFU, ZNF655 / Fold change vs veh, ZNF655 / RFU, FAHD1 / Fold change vs veh, FAHD1 / RFU, BDP1 / Fold change vs veh, BDP1 / RFU, LRRCC1 / Fold change vs veh, LRRCC1 / RFU, ARID1A / Fold change vs veh, ARID1A / RFU, ZNF146 / Fold change vs veh, ZNF146 / RFU, ZNF330 / Fold change vs veh, ZNF330 / RFU, GPN3 / Fold change vs veh, GPN3 / RFU, C9orf123 / Fold change vs veh, C9orf123 / RFU, N4BP2L2 / Fold change vs veh, N4BP2L2 / RFU, ARFIP1 / Fold change vs veh, ARFIP1 / RFU, FAM179B / Fold change vs veh, FAM179B / RFU, BCL10 / Fold change vs veh, BCL10 / RFU, UHRF1BP1L / Fold change vs veh, UHRF1BP1L / RFU, BET1 / Fold change vs veh, BET1 / RFU, CNOT2 / Fold change vs veh, CNOT2 / RFU, ZNF268 / Fold change vs veh, ZNF268 / Fold change vs veh, ZNF507 / RFU, DGCR2 / Fold change vs veh, DGCR2 / RFU, WDSUB1 / Fold change vs veh, WDSUB1 / Fold change vs veh, HSP90B1 /// MIR3652 / RFU, ADSS / Fold change vs veh, ADSS / RFU, GK / Fold change vs veh, GK / RFU, ZNF148 / Fold change vs veh, ZNF148 / RFU, TAF9 / Fold change vs veh, TAF9 / RFU, SLC1A5 / Fold change vs veh, SLC1A5 / RFU, SLMO2 / Fold change vs veh, SLMO2 / RFU, ABCC4 / Fold change vs veh, ABCC4 / RFU, LOC101060439 /// RAP1B / Fold change vs veh, LOC101060439 /// RAP1B / RFU, RFX7 / Fold change vs veh, RFX7 / RFU, GTPBP10 / Fold change vs veh, GTPBP10 / RFU, CNEP1R1 / Fold change vs veh, CNEP1R1 / RFU, BIVM-ERCC5 /// ERCC5 / Fold change vs veh, BIVM-ERCC5 /// ERCC5 / RFU, ILF3 / Fold change vs veh, ILF3 / RFU 11762660_at / Fold change /veh 11762660_at / RFU VCAN (11757783_s_at) / Fold change /veh VCAN (11757783_s_at) / RFU DDX43 (11728927_at) / Fold change /veh DDX43 (11728927_at) / RFU KRT8 (11758188_x_at) / Fold change /veh KRT8 (11758188_x_at) / RFU NKD1 (11759106_at) / Fold change /veh NKD1 (11759106_at) / RFU SRD5A1 (11742802_a_at) / Fold change /veh SRD5A1 (11742802_a_at) / RFU TPSAB1 /// TPSB2 (11721975_s_at) / Fold change /veh TPSAB1 /// TPSB2 (11721975_s_at) / RFU GSTM3 (11746129_a_at) / Fold change /veh GSTM3 (11746129_a_at) / RFU IL23R (11737362_x_at) / Fold change /veh IL23R (11737362_x_at) / RFU TMEM51 (11727254_a_at) / Fold change /veh TMEM51 (11727254_a_at) / RFU PIWIL2 (11732686_x_at) / Fold change /veh PIWIL2 (11732686_x_at) / RFU ORM1 (11744905_x_at) / Fold change /veh ORM1 (11744905_x_at) / RFU CCDC152 (11743942_at) / Fold change /veh CCDC152 (11743942_at) / RFU ECM1 (11717891_a_at) / Fold change /veh ECM1 (11717891_a_at) / RFU IL23R (11748794_a_at) / Fold change /veh IL23R (11748794_a_at) / RFU TNFAIP8L3 (11732012_x_at) / Fold change /veh TNFAIP8L3 (11732012_x_at) / RFU MBOAT4 (11741988_at) / Fold change /veh MBOAT4 (11741988_at) / RFU 11764193_at / Fold change /veh 11764193_at / RFU TMEM53 (11763286_at) / Fold change /veh TMEM53 (11763286_at) / RFU MAGEB2 (11727129_at) / Fold change /veh MAGEB2 (11727129_at) / RFU TMEM200A (11744735_a_at) / Fold change /veh TMEM200A (11744735_a_at) / RFU CCDC152 (11751479_a_at) / Fold change /veh CCDC152 (11751479_a_at) / RFU FAM211A (11726209_a_at) / Fold change /veh FAM211A (11726209_a_at) / RFU RGS16 (11746705_a_at) / Fold change /veh RGS16 (11746705_a_at) / RFU VCAN (11755009_s_at) / Fold change /veh VCAN (11755009_s_at) / RFU RHOB (11743442_s_at) / Fold change /veh RHOB (11743442_s_at) / RFU RGS16 (11720943_a_at) / Fold change /veh RGS16 (11720943_a_at) / RFU RGS16 (11720944_at) / Fold change /veh RGS16 (11720944_at) / RFU, VPS4B / Fold change vs veh, VPS4B / RFU, CREB1 / Fold change vs veh, CREB1 / RFU, DNAJC13 / Fold change vs veh, DNAJC13 / RFU, GNAQ / Fold change vs veh, GNAQ / RFU, CDK5R1 / Fold change vs veh, CDK5R1 / RFU, ZRANB3 / Fold change vs veh, ZRANB3 / RFU, CUL4A / Fold change vs veh, CUL4A / RFU, CCNY / Fold change vs veh, CCNY / RFU, UFL1 / Fold change vs veh, UFL1 / RFU, COG3 / Fold change vs veh, COG3 / RFU, DIAPH2 / Fold change vs veh, DIAPH2 / RFU, SKA2 / Fold change vs veh, SKA2 / RFU, AFF3 / Fold change vs veh, AFF3 / RFU, LMF1 / Fold change vs veh, LMF1 / RFU, IPO11 / Fold change vs veh, IPO11 / RFU, DFFB / Fold change vs veh, DFFB / RFU, FOXP1 / Fold change vs veh, FOXP1 / RFU, CARD8 / Fold change vs veh, CARD8 / RFU, STRN3 / Fold change vs veh, STRN3 / RFU, ADK / Fold change vs veh, ADK / RFU, RASSF2 / Fold change vs veh, RASSF2 / RFU, WIPF1 / Fold change vs veh, WIPF1 / RFU, LARP1B / Fold change vs veh, LARP1B / RFU, RASA1 / Fold change vs veh, RASA1 / RFU, RB1 / Fold change vs veh, RB1 / RFU, PPFIA1 / Fold change vs veh, PPFIA1 / RFU, MAT2A / Fold change vs veh, MAT2A / RFU, CCT5 / Fold change vs veh, CCT5 / RFU, WDR92 / Fold change vs veh, WDR92 / RFU, CUX1 / Fold change vs veh, CUX1 / RFU, TTC7A / Fold change vs veh, TTC7A / RFU, TMEM135 / Fold change vs veh, TMEM135 / RFU, DEPTOR / Fold change vs veh, DEPTOR / RFU, CPM / Fold change vs veh, CPM / RFU, DNAJB6 / Fold change vs veh, DNAJB6 / RFU, CACNA2D3 / Fold change vs veh, CACNA2D3 / RFU, DTX4 / Fold change vs veh, DTX4 / RFU, TFCP2 / Fold change vs veh, TFCP2 / RFU, GMCL1 /// GMCL1P1 / Fold change vs veh, GMCL1 /// GMCL1P1 / RFU, AEBP2 / Fold change vs veh, AEBP2 / RFU, SNHG1 /// SNORD22 /// SNORD25 /// SNORD26 /// SNORD27 /// SNORD28 /// SNORD29 /// SNORD31 / Fold change vs veh, SNHG1 /// SNORD22 /// SNORD25 /// SNORD26 /// SNORD27 /// SNORD28 /// SNORD29 /// SNORD31 / Fold change (Aza/veh), C12orf56 (ProbeSet 11735607_a_at) / Fold change (ACY-1035/veh), C12orf56 (ProbeSet 11735607_a_at) / Fold change (Aza/veh), FGFR1OP (ProbeSet 11751329_s_at) / Fold change (ACY-1035/veh), FGFR1OP (ProbeSet 11751329_s_at) / Fold change (Aza/veh), VPS36 (ProbeSet 11739960_a_at) / Fold change (ACY-1035/veh), VPS36 (ProbeSet 11739960_a_at) / RFU SYPL1 (11715823_x_at) / Fold change /veh SYPL1 (11715823_x_at) / RFU IGFBP7 (11715501_s_at) / Fold change /veh IGFBP7 (11715501_s_at) / RFU REEP3 (11722064_at) / Fold change /veh REEP3 (11722064_at) / RFU IGLL1 (11728026_x_at) / Fold change /veh IGLL1 (11728026_x_at): dose or concentration left out as unconfirmed
Conditions: MV-4-11 cells, 48 hours

Nc1ncn([C@@H]2O[C@H](CO)[C@@H](O)[C@H]2O)c(=O)n1 [azacitidine]
Fold change /veh LRRC4B (11730491_at): 1.07
